Tests used:
VCAM-1 = assay: In vitro VCAM-1 assay: TNF-α stimulated endothelial cells, cell-surface ELISA; assay type: cell-based; details: primary human aortic (HAEC) or pulmonary (HPAEC) endothelial cells, TNF-α 1 ng/ml, approximately 16 hours exposure
Experimental: Cell Culture and compound dosing: Cultured primary human aortic (HAEC) or pulmonary (HPAEC) endothelial cells were obtained from Clonetics, Inc., and were used below passage 9. Cells were seeded in 96 well plates such that they would reach 90–95% confluency by the following day. On the following day the cells were stimulated with TNF-α (1 ng/ml) in the presence or absence of compounds dissolved in DMSO such that the final concentration of DMSO is 0.25% or less. To establish a dose curve for each compound, four concentrations in 2- to 5-fold increments were used. Cells were exposed to TNF-α and compounds for approximately 16 hours. The next day the cells were examined under microscope to score for visual signs of toxicity or cell stress.
Following 16 hr exposure to TNF-α and compound the media was discarded and the cells were washed once with Hanks Balanced Salt Solution (HBSS)/Phosphate buffered saline (PBS) (1:1). Primary antibodies against VCAM-1 (0.25 μg/ml in HBSS/PBS+5% FBS) were added and incubated for 30–60 minutes at 37° C. Cells were washed with HBSS/PBS three times, and secondary antibody Horse Radish Peroxidase (HRP)-conjugated goat anti-mouse IgG (1:500 in HBSS/PBS+5% FBS) were added and incubated for 30 minutes at 37° C. Cells were washed with HBSS/PBS four time and TMB substrate were added and incubated at room temperature in the dark until there was adequate development of blue color. The length of time of incubation was typically 5–15 minutes. 2N sulfuric acid was added to stop the color development and the data was collected by reading the absorbance on a BioRad ELISA plate reader at OD 450 nm. The results are expressed as IC50 values (the concentration (micromolar) of compound required to inhibit 50% of the maximal response of the control sample stimulated by TNF-α only).

melting point	IC50 (VCAM-1)	Compound
198 to 200 °C		COC(=O)c1ccc(C(=O)C#Cc2cc(-c3cccs3)c(OC)cc2OC)cc1 [Example 1, 4-[3-(2,4-dimethoxy-5-thiophen-2-yl-phenyl)-propynoyl]-benzoic acid methyl ester]
220 °C (dec.)	< 5 µM	COc1cc(OC)c(-c2cccs2)cc1C#CC(=O)c1ccc(C(=O)O)cc1 [Example 2, 4-[3-{2,4-Dimethoxy-5-(thiophen-2-yl)-phenyl}propynoyl]-benzoic Acid]
	< 5 µM	COC(=O)COc1c(OC)cc(C(=O)C#Cc2cc(-c3cccs3)c(OC)cc2OC)cc1OC [Example 3, {4-[3-(2,4-Dimethoxy-5-thiophen-2-yl-phenyl)-propynoyl]-2,6-dimethoxy-phenoxy}-acetic acid methyl ester]
	< 5 µM	COc1cc(OC)c(-c2cccs2)cc1C#CC(=O)c1cc(OC)c(OCC(=O)O)c(OC)c1 [Example 4, {4-[3-(2,4-Dimethoxy-5-thiophen-2-yl-phenyl)-propynoyl]-2,6-dimethoxy-phenoxy}-acetic acid]

Reference: patent US7202247B2, “1,3-bis-(substituted-phenyl)-2-propyn-1-ones and their use to treat disorders” (AtheroGenics, Inc., priority 2001, dated 2007)
